Results reported in patent US20260048046A1, “METHOD FOR IMPROVING GROWTH PERFORMANCE IN FEEDLOT CATTLE” (Elanco US Inc., priority 2022, published 2026).

Tested on: beef steers
Test: Lubabegron removal period study: animal mobility at harvest
Assay type: in vivo, cattle
Settings: for Mobility Score 1, number of animals / Mobility Score 2, number of animals / Mobility Score 3, number of animals / Mobility Score 4, number of animals: Lubabegron 3.5 mg/kg, in lairage at harvest
Description: Seven hundred English x Continental cross steers (initial BW=531±8.8 kg) were used in a randomized complete block design with seven treatments. Pen served as the experimental unit. […] Animals were managed as two-time replications with each replication containing five blocks (7 pens/block and 10 steers/pen). All ten blocks started and ended within 48 hours of each other. Cattle were weighed by pen using a 45,000-kg capacity pen scale (Model WI-130, Avery Weigh-Tronix LLC, Fairmont, MN; 3.66 m×21.34 m). All treatments were on feed for 71 d with harvest scheduled for 72 d. Because of an impending weather event, cattle were weighed to obtain a final BW one d early. Cattle were placed on their respective ration for the additional d and then shipped to the harvest facility the following morning.
657 head were transported to a harvest facility approximately 495 km from the research facility. Animals were scored for animal mobility using the North American Meat Institute (NAMI, 2015) scoring scale described by Edwards-Callaway et al., (2017) while in lairage. […] Experienced staff collected an ear tag number, plant identification (ID), and carcass sequence and applied a unique carcass ID. Data collected on the kill floor included HCW, instances of excessive trim (>approximately 9 kg), and prevalence of liver abscess (Brown et al., 1975). Other carcass measures were obtained via instrument grading.
Continuous variables were analyzed using the Mixed procedure of SAS (version 9.4; SAS Institute, Cary, NC). Block served as a random effect whereas treatment was fixed. Initial body weight was used to describe the uniformity of cattle randomized to treatment and used as a covariate when appropriate. Data were calculated with deads and removals excluded. Linear and quadratic effects of lubabegron removal were conducted as were individual comparisons for duration of removal (i.e., 0 vs 2 d; 0 vs 4 d, 0 vs 6 d; 0 vs 8 d and 0 vs 16 d). Fisher's Exact test was evaluated on mobility scores 1 and 2. No test was conducted on mobility scores of 3 or 4 because no scores were reported. Simple means and standard deviation of the tissues collected for the 5 animals were calculated.

SMILES: CC(C)(Cc1ccc(Oc2ncccc2C#N)cc1)NC[C@H](O)COc1ccccc1-c1cccs1 [LUB, 2-{4-[2-({(2S)-2-Hydroxy-3-[2-(2-thienyl)phenoxy]propyl}amino)-2-methylpropyl]phenoxy}nicotinonitrile]
- Animal mobility when lubabegron was fed (3.5 mg/kg DM vs non-treated, P<0.25): No differences
- Mobility Score 1, number of animals (removal duration 0 d): 92 n
- Mobility Score 2, number of animals (removal duration 0 d): 3 n
- Mobility Score 3, number of animals (removal duration 0 d): 0 n
- Mobility Score 4, number of animals (removal duration 0 d): 0 n
- Mobility Score 1, number of animals (removal duration 2 d): 95 n
- Mobility Score 2, number of animals (removal duration 2 d): 0 n
- Mobility Score 3, number of animals (removal duration 2 d): 0 n
- Mobility Score 4, number of animals (removal duration 2 d): 0 n
- Mobility Score 1, number of animals (removal duration 4 d): 91 n
- Mobility Score 2, number of animals (removal duration 4 d): 2 n
- Mobility Score 3, number of animals (removal duration 4 d): 0 n
- Mobility Score 4, number of animals (removal duration 4 d): 0 n
- Mobility Score 1, number of animals (removal duration 6 d): 89 n
- Mobility Score 2, number of animals (removal duration 6 d): 4 n
- Mobility Score 3, number of animals (removal duration 6 d): 0 n
- Mobility Score 4, number of animals (removal duration 6 d): 0 n
- Mobility Score 1, number of animals (removal duration 8 d): 87 n
- Mobility Score 2, number of animals (removal duration 8 d): 4 n
- Mobility Score 3, number of animals (removal duration 8 d): 0 n
- Mobility Score 4, number of animals (removal duration 8 d): 0 n
- Mobility Score 1, number of animals (removal duration 16 d): 90 n
- Mobility Score 2, number of animals (removal duration 16 d): 5 n
- Mobility Score 3, number of animals (removal duration 16 d): 0 n
- Mobility Score 4, number of animals (removal duration 16 d): 0 n
- Animal mobility with increased duration of removal (lubabegron 3.5 mg/kg DM, removal 0 to 16 d, P<0.06): tended (P<0.06) to be reduced
